# Reference: BindingDB's records for patent US20240262835 (Antengene Discovery, 2024)
# Target: Methylosome protein 50/Protein arginine N-methyltransferase 5 (Homo sapiens, UniProt O14744)
# Assay: PRMT5/MEP50 HotSpot Methyltransferase Assay
# Experimental: Table 2: The assay used recombinant full-length histone H2A as the substrate of PRMT5. Enzymatic transfer of the tritiated methyl group from S-adenosyl-L-[methyl-3H]methionine (3H-SAM) to the histone H2A protein generated a radiolabeled histone H2A by measuring in a scintillation counter to determine the activity of PRMT5 enzyme in the presence and absence of compound. The assay reactions were conducted in the presence of 100 nM MTA. Briefly, compounds were solubilized in 100% DMSO at the highest concentration of 10 mM. […] Control samples lacking compound, PRTM5/MEP50 complex or various reaction components also were prepared and processed in parallel with compound test samples. SAH was used as a positive control for assay validation. To measure PRMT5 inhibitory activity, 1 nM PRTM5/MEP50 complex was preincubated with test compound in assay buffer containing 5 μM full-length histone H2A for 15 minutes at room temperature. The enzymatic reaction was initiated by adding 1 μM 3H-SAM (final concentration) and the mixture was incubated at 30° C. for 1 hour. The reaction was stopped and transferred to filter paper for detection. The amount of tritiated H2A in each sample was determined using a scintillation counter.
# Sequence of Methylosome protein 50/Protein arginine N-methyltransferase 5 (O14744 whole entry): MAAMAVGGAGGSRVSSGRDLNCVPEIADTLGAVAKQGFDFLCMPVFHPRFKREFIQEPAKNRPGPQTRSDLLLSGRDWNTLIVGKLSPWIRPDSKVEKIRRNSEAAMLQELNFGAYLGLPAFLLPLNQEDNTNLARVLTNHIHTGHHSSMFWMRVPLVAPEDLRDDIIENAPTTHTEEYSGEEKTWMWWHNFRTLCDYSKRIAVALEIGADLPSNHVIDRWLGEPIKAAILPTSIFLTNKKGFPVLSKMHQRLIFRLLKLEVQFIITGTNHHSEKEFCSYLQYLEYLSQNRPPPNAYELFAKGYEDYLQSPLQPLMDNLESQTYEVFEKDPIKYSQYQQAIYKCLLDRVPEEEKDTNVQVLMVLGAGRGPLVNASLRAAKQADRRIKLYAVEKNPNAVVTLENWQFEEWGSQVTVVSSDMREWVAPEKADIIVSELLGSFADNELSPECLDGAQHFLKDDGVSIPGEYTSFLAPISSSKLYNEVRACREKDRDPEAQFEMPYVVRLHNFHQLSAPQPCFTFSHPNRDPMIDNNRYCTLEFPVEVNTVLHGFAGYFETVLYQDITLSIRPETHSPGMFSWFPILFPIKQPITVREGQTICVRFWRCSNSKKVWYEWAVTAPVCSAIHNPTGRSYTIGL
# Sequence of Methylosome protein 50/Protein arginine N-methyltransferase 5 (Q9BQA1 whole entry, further chain): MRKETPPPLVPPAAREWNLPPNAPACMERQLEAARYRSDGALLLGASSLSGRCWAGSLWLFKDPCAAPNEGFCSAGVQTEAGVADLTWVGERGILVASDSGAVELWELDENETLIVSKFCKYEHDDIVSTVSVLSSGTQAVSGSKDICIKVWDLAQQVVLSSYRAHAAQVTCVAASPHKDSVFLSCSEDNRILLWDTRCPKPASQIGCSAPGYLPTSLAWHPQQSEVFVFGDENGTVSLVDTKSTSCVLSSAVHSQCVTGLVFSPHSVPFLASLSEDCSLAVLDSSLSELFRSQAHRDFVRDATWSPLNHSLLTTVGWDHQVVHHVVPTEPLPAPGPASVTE
row,Structure (SMILES),IC50 [nM]
1,"C[C@H]1CC[C@H](c2ccc3c(c2)CCC(=O)N3)N(C(=O)c2ccc3nc(N)c4cncn4c3c2)C1 [US20240262835, Compound 4]",6
2,"C[C@H](c1ncccn1)N(Cc1ccc(C(F)(F)F)cn1)C(=O)c1ccc2nc(N)n3cncc3c2c1 [US20240262835, Compound 5]",81
3,"C[C@H](c1ncccn1)N(Cc1ccc(C(F)(F)F)cn1)C(=O)c1cc2c(cc1F)nc(N)c1cncn12 [US20240262835, Compound 6]",101
4,"C[C@H](c1ncccn1)N(Cc1ccc(C(F)(F)F)cn1)C(=O)c1cc2c(cn1)nc(N)c1cncn12 [US20240262835, Compound 10]",379

# Continued by falling IC50, values first:
row,IC50 [nM],Structure (SMILES)
1,64,"C[C@H](c1ncccn1)N(Cc1ccc(C(F)(F)F)cn1)C(=O)c1ccc2nc(N)c3cncn3c2c1 [US20240262835, Compound 3]"
2,8,"Cn1ncc(-c2ccc3c(c2)nc(N)c2cncn23)c1-c1c(F)cc2ccccc2c1C#N [US20240262835, Compound 1]"
